In patent publication US20240317731A1, “AMINOTHIAZOLE COMPOUNDS AS C-KIT INHIBITORS” (Theseus Pharmaceuticals, Inc., priority 2021, published 2024):

Assays:
BAF3 KIT EX11 DEL = BAF3 KIT EX11 DEL (Homo sapiens, UniProt P10721, cells depend on it, form not given); experiment: Ba/F3 KIT mutant viability assay (Cell Titer-Glo), EX11 DEL; format: cell-based; details: 72 hours
Protocol: (§1) KIT cDNAs were synthesized by GenScript and cloned into the pLVX-IRES-Puro vector (Clontech). Viral particles were produced by transfecting pLVX-IRES-puro vectors containing KIT mutant genes into HEK293 cells (Invitrogen) using the Trans-Lentiviral ORF Packaging Kit (Thermo Scientific). 48 hours post-transfection, virus-containing supernatants were harvested and incubated for another 48-72 hours with parental Ba/F3 cells (DSMZ) in the presence of 10 ng/ml IL-3 (R&D Systems). Transduced Ba/F3 cells were then selected by IL-3 withdrawal and puromycin (0.5-1 μg/mL, Invitrogen).
(§2) Cell lines (e.g., EX11DEL, EX11KEL/D816H, EX11DEL/T670I, and EX11DEL/V654A) were plated into 384 well plates using RPMI 1640 supplemented with 10% FBS at densities that produced linear growth and incubated at 37° C. in 5%(v/v) CO2. Cells were treated with eight concentrations of compound over a 4-fold dilution (10 uM to 0.61 nM) and viability was assessed using Cell Titer-Glo assay (Promega) after 72 hours. Data were plotted as percent viability relative to vehicle-treated cells. Dose-responses curves were generated and used to calculate IC50 values.

BAF3 KIT EX11 DEL/D816H = BAF3 KIT EX11 DEL/D816H (Homo sapiens, UniProt P10721, D816H, cells depend on it, form not given); experiment: Ba/F3 KIT mutant viability assay (Cell Titer-Glo), EX11 DEL/D816H; format: cell-based; details: 72 hours
Protocol: as §1, §2

BAF3 KIT EX11 DEL/T670I = BAF3 KIT EX11 DEL/T670I (Homo sapiens, UniProt P10721, T670I, cells depend on it, form not given); experiment: Ba/F3 KIT mutant viability assay (Cell Titer-Glo), EX11 DEL/T670I; format: cell-based; details: 72 hours
Protocol: as §1, §2

BAF3 KIT EX11 DEL/V654A = BAF3 KIT EX11 DEL/V654A (Homo sapiens, UniProt P10721, V654A, cells depend on it, form not given); experiment: Ba/F3 KIT mutant viability assay (Cell Titer-Glo), EX11 DEL/V654A; format: cell-based; details: 72 hours
Protocol: as §1, §2

[1] = In vivo pharmacokinetic studies in rats; details: rat
Text: For example, the pharmacokinetics of Compound (1a) has been studied. […] After repeat dosing for 10 days, increased AUC (area under the curve) were obtained with Compound (1a) at either dose (see FIG. 1).

[2] = In vivo pharmacokinetic studies in non-human primates (monkeys); set-up: species or system monkey; details: male and female monkeys, oral
Protocol: Pharmacokinetic studies of Compound (1a) in non-human primates were also undertaken in male (FIG. 2A) and female (FIG. 2B) monkeys at two different doses (2 mg/kg and 4 mg/kg) via oral administration.

Chain of BAF3 KIT EX11 DEL/V654A (P10721 with tags, fused parts or gaps DEL557-558/V654A, form open): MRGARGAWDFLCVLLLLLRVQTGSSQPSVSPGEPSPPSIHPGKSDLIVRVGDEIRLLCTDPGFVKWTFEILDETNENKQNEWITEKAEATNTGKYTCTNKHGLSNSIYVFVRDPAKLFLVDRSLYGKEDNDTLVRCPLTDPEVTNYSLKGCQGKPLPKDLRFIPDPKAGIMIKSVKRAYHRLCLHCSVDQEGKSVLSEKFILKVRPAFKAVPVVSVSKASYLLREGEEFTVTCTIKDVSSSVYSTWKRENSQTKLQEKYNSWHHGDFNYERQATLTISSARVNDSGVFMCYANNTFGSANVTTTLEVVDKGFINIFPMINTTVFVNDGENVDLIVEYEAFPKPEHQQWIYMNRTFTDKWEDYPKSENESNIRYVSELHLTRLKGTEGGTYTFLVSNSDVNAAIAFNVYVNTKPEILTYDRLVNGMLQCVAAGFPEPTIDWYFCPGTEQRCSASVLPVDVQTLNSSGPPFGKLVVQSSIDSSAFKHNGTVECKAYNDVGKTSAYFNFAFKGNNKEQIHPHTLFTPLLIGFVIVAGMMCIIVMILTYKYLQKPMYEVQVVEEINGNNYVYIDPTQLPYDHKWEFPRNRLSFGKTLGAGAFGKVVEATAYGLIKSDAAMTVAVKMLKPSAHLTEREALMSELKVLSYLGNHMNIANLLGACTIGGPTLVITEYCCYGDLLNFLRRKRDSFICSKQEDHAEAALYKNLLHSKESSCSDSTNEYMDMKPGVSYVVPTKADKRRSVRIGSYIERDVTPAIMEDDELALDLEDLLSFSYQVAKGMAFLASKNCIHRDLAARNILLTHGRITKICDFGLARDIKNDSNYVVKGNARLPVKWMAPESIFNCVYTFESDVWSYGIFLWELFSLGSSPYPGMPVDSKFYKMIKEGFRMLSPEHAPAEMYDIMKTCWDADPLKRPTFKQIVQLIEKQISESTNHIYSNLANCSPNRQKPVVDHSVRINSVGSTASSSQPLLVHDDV
Chain of BAF3 KIT EX11 DEL/D816H (P10721 with tags, fused parts or gaps DEL557-558/D816H, form open): as the sequence (P10721 with tags, fused parts or gaps DEL557-558/V654A, form open) above, with A652V, D814H counted along it
Chain of BAF3 KIT EX11 DEL (P10721 with tags, fused parts or gaps DEL557-558): as the sequence (P10721 with tags, fused parts or gaps DEL557-558/V654A, form open) above, with A652V counted along it
Chain of BAF3 KIT EX11 DEL/T670I (P10721 with tags, fused parts or gaps DEL557-558/T670I, form open): as the sequence (P10721 with tags, fused parts or gaps DEL557-558/V654A, form open) above, with A652V, T668I counted along it

AUC (area under the curve) after repeat dosing ([1]; oral, 10 mg/kg and 30 mg/kg (either dose), repeat dosing for 10 days, FIG. 1) | clearance (Cl) ([1]; single dose) | volume of distribution (Vd) ([1]; single dose) | curve shapes and AUC, Day 1 versus Day 10 ([2]; 2 mg/kg and 4 mg/kg (either dose), FIG. 2A/2B) | exposure after repeat dosing ([2]; 2 mg/kg and 4 mg/kg, Day 10 versus Day 1) | SMILES | GI50 (BAF3 KIT EX11 DEL) | GI50 (BAF3 KIT EX11 DEL/D816H) | GI50 (BAF3 KIT EX11 DEL/T670I) | GI50 (BAF3 KIT EX11 DEL/V654A) | average observed plasma concentration (Cav) versus target exposure ([1]; oral, 30 mg/kg (the latter dose))
increased | high | high | similar | no significant loss of exposure | Cc1ccc(NC(=O)c2cc(C(F)(F)F)ccn2)cc1C#Cc1cnc(NC(=O)N2CC[C@H](N(C)C)C2)s1 [Compound 1a, N-[3-[2-[2-[[(3S)-3-(dimethylamino)pyrrolidine-1-carbonyl]amino]thiazol-5-yl]ethynyl]-4-methyl-phenyl]-4-(trifluoromethyl)pyridine-2-carboxamide] | < 0.01 µM | 0.01 to 0.05 µM | 0.01 to 0.05 µM | 0.01 to 0.05 µM | exceeded target exposure required for achieving desired antitumor efficacy
– | – | – | – | – | Cc1ccc(NC(=O)c2cc(C(F)(F)F)ccn2)cc1C#Cc1cnc(NC(=O)N2CC[C@@H](N(C)C)C2)s1 [Compound 1b] | < 0.01 µM | 0.01 to 0.05 µM | 0.01 to 0.05 µM | 0.01 to 0.05 µM | –
– | – | – | – | – | Cc1ccc(NC(=O)c2cc(C(F)(F)F)ccn2)cc1C#Cc1cnc(NC(=O)N2CC[C@@H](O)C2)s1 [Compound 2a] | < 0.01 µM | < 0.01 µM | < 0.01 µM | < 0.01 µM | –
– | – | – | – | – | Cc1ccc(NC(=O)c2cc(C(F)(F)F)ccn2)cc1C#Cc1cnc(NC(=O)N2CC[C@H](O)C2)s1 [Compound 2b] | < 0.01 µM | < 0.01 µM | < 0.01 µM | < 0.01 µM | –
– | – | – | – | – | Cc1ccc(NC(=O)c2cc(C(F)(F)F)ccn2)cc1C#Cc1cnc(NC(=O)N2CC(O)C2)s1 [Compound 3] | < 0.01 µM | 0.01 to 0.05 µM | 0.01 to 0.05 µM | 0.01 to 0.05 µM | –
– | – | – | – | – | Cc1ccc(NC(=O)c2cc(C(F)(F)F)ccn2)cc1C#Cc1cnc(NC(=O)N2CC(C)(O)C2)s1 [Compound 4] | < 0.01 µM | 0.01 to 0.05 µM | 0.01 to 0.05 µM | 0.01 to 0.05 µM | –
– | – | – | – | – | CN[C@H]1CCN(C(=O)Nc2ncc(C#Cc3cc(NC(=O)c4cc(C(F)(F)F)ccn4)ccc3C)s2)C1 [Compound 5a] | < 0.01 µM | 0.01 to 0.05 µM | 0.05 to 0.1 µM | 0.01 to 0.05 µM | –
